{"source": "patent US20090176817A1", "about": "“Method of Treatment of Diarrhea-Predominant Irritable Bowel Syndrome in a Subject” (priority 2005, published 2009)", "test_system": "diarrhea-predominant IBS subjects", "assay": "Study S241.3.009: weekly diary questions on adequate relief", "type": "in vivo, human", "details": "ITT, 2 mg TID; for Number of months a subject was a responder: Three months (IBS symptoms) / Number of months a subject was a responder: Two months (Abdominal pain/discomfort) / Number of months a subject was a responder: Two months (Abnormal bowel habits) / Number of months a subject was a responder: Two months (IBS symptoms) / Number of months a subject was a responder: Zero months (Abdominal pain/discomfort) / Number of months a subject was a responder: Zero months (Abnormal bowel habits) / Number of months a subject was a responder: Zero months (IBS symptoms) / Number of months a subject was a responder: One month (Abdominal pain/discomfort) / Number of months a subject was a responder: One month (Abnormal bowel habits) / Number of months a subject was a responder: One month (IBS symptoms) / Number of months a subject was a responder: Three months (Abdominal pain/discomfort) / Number of months a subject was a responder: Three months (Abnormal bowel habits): Months 1 to 3, monthly LOCF; for Overall responder rate, adequate relief of IBS symptoms / Overall responder rate, adequate relief of abdominal pain/discomfort / Overall responder rate, adequate relief of abnormal bowel habits: 26-week treatment period, observed case", "procedure": "Study S241.3.009 was a Phase III, a double-blind, placebo-controlled, randomized, multinational study to investigate the safety and efficacy of 2 mg TID of cilansetron over 26 weeks in diarrhea-predominant IBS subjects. The study was conducted in 146 multinational study centers. A total of 1307 subjects consented to participate, and 806 subjects were randomized. A total of 792 subjects were analyzed for efficacy and 799 subjects were analyzed for safety. Diagnosis and main criteria for inclusion were IBS subjects satisfying the Rome I criteria (1992); the diarrhea-predominant sub-population of the Rome II criteria; and a minimum abdominal pain/discomfort, stool frequency and consistency determined during the run-in period. Subjects were treated with cilansetron 2 mg tablets given orally TID or matching placebo tablets given orally TID for 26 weeks.\nThe primary efficacy parameter was the overall response rate for IBS symptoms, based on the weekly question concerning adequate relief of IBS symptoms (abdominal pain/discomfort, abnormal bowel habits) over the 26 weeks period. A responder was a subject who responded “yes” at least 50% of the time during his/her treatment period, with minimum treatment duration of four weeks. The two main secondary efficacy parameters were overall responder rate based on the weekly question on adequate relief of abdominal pain/discomfort and abnormal bowel habits during the 26-week treatment period. The onset of action of cilansetron was also examined using daily diary data (stool frequency, and ratings of urgency and severity) during the initial 8 weeks of trial participation. An additional key secondary efficacy parameter was the number of months (one month equals four weeks) up to six months (24-weeks) that a subject was a responder for IBS symptoms, where a responder was defined as a subject who answered the weekly question with “yes” at least twice for that month. The responder rate for the weekly diary questions on adequate relief at each month and all months, the adequate relief rate, the number of subjects with adequate relief by week, daily diary questions, IBS-QOL scores, and the interruption of activities were also assessed. Safety was evaluated by physical examination, ECG, vital signs, laboratory evaluations, concomitant medications, and AEs.\nStudies S24 1.3.OO6, S24 1.3.0 1 1, and S24 1.3.009 used the following efficacy measurements: • The subjects answered the following three questions with “yes” or “no” using a phone diary at the end of each week: • a) During the last week, did you experience adequate relief of your IBS symptoms, such as abdominal pain, abdominal discomfort, abnormal bowel habits? • b) During the last week, did you experience adequate relief of your abdominal pain and/or discomfort? • c) During the last week, did you experience adequate relief of your abnormal bowel habits? • The subjects rated the following symptoms using the phone diary at the end of each day: • abdominal pain/discomfort (five-point scale); • stool consistency (seven-point Bristol Stool Scale); • stool frequency (number of bowel movements each day); • urgency (five-point scale); • straining (yes or no); • feeling of incomplete defecation (yes or no); • bloating or feeling of abdominal distension (five-point scale). • In Studies S241 A006 and S241.3.009, subjects completed the IBS-QOL Survey at Baseline (Day 1) and at the end of treatment. In Study S24 1.3.0 1 1, subjects completed the IBS-QOL Survey at Baseline (Day 1), at the end of the three-month treatment period, and at the end of rerandomized treatment.\nIn all three pivotal efficacy studies, the primary and main secondary efficacy parameters were based on the weekly diary questions on adequate relief and included the following: • 1. Number of months (one month equals four weeks) that a subject was a responder for the weekly diary questions on adequate relief. […]", "key": {"[1]": {"details": "Baseline severity of IBS: non-severe"}, "[2]": {"details": "Baseline severity of IBS: severe"}, "[3]": {"details": "Duration of IBS: >24 months to ≦48 months, monthly LOCF imputation"}}}
{"smiles": "Cc1nccn1C[C@H]1CCc2c(c3cccc4c3n2CCC4)C1=O", "note": "[Cilansetron, (R)-(−)-4,5,6,8,9,10-hexahydro-10-[(2-methyl-1H-imidazol-1-yl)methyl]-11H-pyrido-[3,2,1-jk]-carbazol-11-one]", "values": [{"measurement": "Number of months a subject was a responder: Three months (IBS symptoms)", "setting": "Baseline BMI: <30 kg/m^2", "value": "131 (40) n (%)"}, {"measurement": "Number of months a subject was a responder: Two months (Abdominal pain/discomfort)", "setting": "Baseline BMI: <30 kg/m^2", "value": "58 (18) n (%)"}, {"measurement": "Number of months a subject was a responder: Two months (Abnormal bowel habits)", "setting": "Baseline BMI: <30 kg/m^2", "value": "69 (21) n (%)"}, {"measurement": "Number of months a subject was a responder: Two months (IBS symptoms)", "setting": "Baseline BMI: <30 kg/m^2", "value": "64 (19) n (%)"}, {"measurement": "Number of months a subject was a responder: Zero months (Abdominal pain/discomfort)", "setting": "Baseline BMI: <30 kg/m^2", "value": "82 (25) n (%)"}, {"measurement": "Number of months a subject was a responder: Zero months (Abnormal bowel habits)", "setting": "Baseline BMI: <30 kg/m^2", "value": "78 (24) n (%)"}, {"measurement": "Number of months a subject was a responder: Zero months (IBS symptoms)", "setting": "Baseline BMI: <30 kg/m^2", "value": "86 (26) n (%)"}, {"measurement": "Overall responder rate, adequate relief of IBS symptoms", "setting": "Baseline BMI: ≧30 kg/m^2", "value": "27 (42) n (%)"}, {"measurement": "Overall responder rate, adequate relief of abdominal pain/discomfort", "setting": "Baseline BMI: ≧30 kg/m^2", "value": "32 (49) n (%)"}, {"measurement": "Overall responder rate, adequate relief of abnormal bowel habits", "setting": "Baseline BMI: ≧30 kg/m^2", "value": "33 (51) n (%)"}, {"measurement": "Number of months a subject was a responder: One month (Abdominal pain/discomfort)", "setting": "Baseline BMI: ≧30 kg/m^2", "value": "10 (15) n (%)"}, {"measurement": "Number of months a subject was a responder: One month (Abnormal bowel habits)", "setting": "Baseline BMI: ≧30 kg/m^2", "value": "10 (15) n (%)"}, {"measurement": "Number of months a subject was a responder: One month (IBS symptoms)", "setting": "Baseline BMI: ≧30 kg/m^2", "value": "6 (9) n (%)"}, {"measurement": "Number of months a subject was a responder: Three months (Abdominal pain/discomfort)", "setting": "Baseline BMI: ≧30 kg/m^2", "value": "20 (31) n (%)"}, {"measurement": "Number of months a subject was a responder: Three months (Abnormal bowel habits)", "setting": "Baseline BMI: ≧30 kg/m^2", "value": "21 (32) n (%)"}, {"measurement": "Number of months a subject was a responder: Three months (IBS symptoms)", "setting": "Baseline BMI: ≧30 kg/m^2", "value": "19 (29) n (%)"}, {"measurement": "Number of months a subject was a responder: Two months (Abdominal pain/discomfort)", "setting": "Baseline BMI: ≧30 kg/m^2", "value": "12 (18) n (%)"}, {"measurement": "Number of months a subject was a responder: Two months (Abnormal bowel habits)", "setting": "Baseline BMI: ≧30 kg/m^2", "value": "14 (22) n (%)"}, {"measurement": "Number of months a subject was a responder: Two months (IBS symptoms)", "setting": "Baseline BMI: ≧30 kg/m^2", "value": "16 (25) n (%)"}, {"measurement": "Number of months a subject was a responder: Zero months (Abdominal pain/discomfort)", "setting": "Baseline BMI: ≧30 kg/m^2", "value": "23 (35) n (%)"}, {"measurement": "Number of months a subject was a responder: Zero months (Abnormal bowel habits)", "setting": "Baseline BMI: ≧30 kg/m^2", "value": "20 (31) n (%)"}, {"measurement": "Number of months a subject was a responder: Zero months (IBS symptoms)", "setting": "Baseline BMI: ≧30 kg/m^2", "value": "24 (37) n (%)"}, {"measurement": "Overall responder rate, adequate relief of IBS symptoms", "setting": "[1]", "value": "149 (61) n (%)"}, {"measurement": "Overall responder rate, adequate relief of abdominal pain/discomfort", "setting": "[1]", "value": "150 (61) n (%)"}, {"measurement": "Overall responder rate, adequate relief of abnormal bowel habits", "setting": "[1]", "value": "161 (65) n (%)"}, {"measurement": "Number of months a subject was a responder: One month (Abdominal pain/discomfort)", "setting": "[1]", "value": "42 (17) n (%)"}, {"measurement": "Number of months a subject was a responder: One month (Abnormal bowel habits)", "setting": "[1]", "value": "31 (13) n (%)"}, {"measurement": "Number of months a subject was a responder: One month (IBS symptoms)", "setting": "[1]", "value": "37 (15) n (%)"}, {"measurement": "Number of months a subject was a responder: Three months (Abdominal pain/discomfort)", "setting": "[1]", "value": "102 (41) n (%)"}, {"measurement": "Number of months a subject was a responder: Three months (Abnormal bowel habits)", "setting": "[1]", "value": "104 (42) n (%)"}, {"measurement": "Number of months a subject was a responder: Three months (IBS symptoms)", "setting": "[1]", "value": "95 (39) n (%)"}, {"measurement": "Number of months a subject was a responder: Two months (Abdominal pain/discomfort)", "setting": "[1]", "value": "41 (17) n (%)"}, {"measurement": "Number of months a subject was a responder: Two months (Abnormal bowel habits)", "setting": "[1]", "value": "54 (22) n (%)"}, {"measurement": "Number of months a subject was a responder: Two months (IBS symptoms)", "setting": "[1]", "value": "51 (21) n (%)"}, {"measurement": "Number of months a subject was a responder: Zero months (Abdominal pain/discomfort)", "setting": "[1]", "value": "61 (25) n (%)"}, {"measurement": "Number of months a subject was a responder: Zero months (Abnormal bowel habits)", "setting": "[1]", "value": "57 (23) n (%)"}, {"measurement": "Number of months a subject was a responder: Zero months (IBS symptoms)", "setting": "[1]", "value": "63 (26) n (%)"}, {"measurement": "Overall responder rate, adequate relief of IBS symptoms", "setting": "[2]", "value": "84 (57) n (%)"}, {"measurement": "Overall responder rate, adequate relief of abdominal pain/discomfort", "setting": "[2]", "value": "88 (59) n (%)"}, {"measurement": "Overall responder rate, adequate relief of abnormal bowel habits", "setting": "[2]", "value": "91 (61) n (%)"}, {"measurement": "Number of months a subject was a responder: One month (Abdominal pain/discomfort)", "setting": "[2]", "value": "19 (13) n (%)"}, {"measurement": "Number of months a subject was a responder: One month (Abnormal bowel habits)", "setting": "[2]", "value": "18 (12) n (%)"}, {"measurement": "Number of months a subject was a responder: One month (IBS symptoms)", "setting": "[2]", "value": "18 (12) n (%)"}, {"measurement": "Number of months a subject was a responder: Three months (Abdominal pain/discomfort)", "setting": "[2]", "value": "56 (38) n (%)"}, {"measurement": "Number of months a subject was a responder: Three months (Abnormal bowel habits)", "setting": "[2]", "value": "60 (41) n (%)"}, {"measurement": "Number of months a subject was a responder: Three months (IBS symptoms)", "setting": "[2]", "value": "54 (36) n (%)"}, {"measurement": "Number of months a subject was a responder: Two months (Abdominal pain/discomfort)", "setting": "[2]", "value": "29 (20) n (%)"}, {"measurement": "Number of months a subject was a responder: Two months (Abnormal bowel habits)", "setting": "[2]", "value": "29 (20) n (%)"}, {"measurement": "Number of months a subject was a responder: Two months (IBS symptoms)", "setting": "[2]", "value": "29 (20) n (%)"}, {"measurement": "Number of months a subject was a responder: Zero months (Abdominal pain/discomfort)", "setting": "[2]", "value": "44 (30) n (%)"}, {"measurement": "Number of months a subject was a responder: Zero months (Abnormal bowel habits)", "setting": "[2]", "value": "41 (28) n (%)"}, {"measurement": "Number of months a subject was a responder: Zero months (IBS symptoms)", "setting": "[2]", "value": "47 (32) n (%)"}, {"measurement": "Number of months a subject was a responder during Months 1 to 3: Abdominal pain/discomfort, One month", "setting": "[3]", "value": "14 (15) n (%)"}, {"measurement": "Number of months a subject was a responder during Months 1 to 3: Abdominal pain/discomfort, Three months", "setting": "[3]", "value": "37 (39) n (%)"}, {"measurement": "Number of months a subject was a responder during Months 1 to 3: Abdominal pain/discomfort, Two months", "setting": "[3]", "value": "19 (20) n (%)"}, {"measurement": "Number of months a subject was a responder during Months 1 to 3: Abdominal pain/discomfort, Zero months", "setting": "[3]", "value": "26 (27) n (%)"}, {"measurement": "Number of months a subject was a responder during Months 1 to 3: Abnormal bowel habits, One month", "setting": "[3]", "value": "11 (11) n (%)"}, {"measurement": "Number of months a subject was a responder during Months 1 to 3: Abnormal bowel habits, Three months", "setting": "[3]", "value": "36 (38) n (%)"}, {"measurement": "Number of months a subject was a responder during Months 1 to 3: Abnormal bowel habits, Two months", "setting": "[3]", "value": "25 (26) n (%)"}, {"measurement": "Number of months a subject was a responder during Months 1 to 3: Abnormal bowel habits, Zero months", "setting": "[3]", "value": "24 (25) n (%)"}]}
